US20260042746A1, “2(1H)-PYRIDINIMINE DERATIVE” (SUMITOMO PHARMA CO., LTD., priority 2022, published 2026)

Experiments:
Format in all cases: cell-based
[1] = test system: α-synuclein aggregate; assay: Test 2: suppressing the accumulation of α-synuclein aggregate in neurospheroid from PLA2G6 mutant human iPS cells; conditions: compound added day 4, measured day 9, DMSO = 100%; for activity at 0.1 µM: 100 nM, read-out: Amount of aggregate (%) 100 nM; for activity at 1 µM: 1000 nM, read-out: Amount of aggregate (%) 1000 nM
Experimental: Test 2: Evaluation of Suppressing the Accumulation of α-Synuclein Aggregate with Neurospheroid Prepared from Human iPS Cells with a Mutation in PLA2G6 Gene
(§1) (1) Induction of Differentiation from Human iPS Cell to Neural Cell
(§2) Neural stem cells were induced from PLA2G6 gene mutant iPS cells with PSC Neuronal Induction Medium (Thermo Fisher Scientific Inc., cat #A1647801). Neurospheroid was prepared from the induced neural stem cells by three-dimensional culture system, and preserved with BrainPhys Neuronal Medium (STEMCELL Technologies, cat #ST-05793) comprising NeuroCult SM1 Neuronal Supplement, N2 Supplement-A, 20 ng/mL BDNF, 20 ng/mL GDNF, 1 mM dibutyryl cAMP, and 200 nM ascorbic acid. Half of the culture medium was replaced on day 2 and day 4 after the induction of differentiation.
The test compound was diluted with the culture medium so as to be twice the final concentration, and an equal volume of the twice-concentrated solution was added to each well when half of the culture medium was replaced on day 4 after induction of differentiation.
(§3) (2) Evaluation of the Amount of α-Synuclein Aggregate
(§4) From the neurospheroid 9 days after the induction of differentiation, proteins were extracted with a TBS solution containing 1% TritionX-100, and the extracted proteins were subjected to a protein analysis with Simple Western system (Protein Simple, Inc., cat #SM-W008) using an α-synuclein antibody (Thermo Fisher Scientific Inc., cat #AHB0261) to measure the amount of the α-synuclein aggregate.
Assuming that the amount of the aggregate in the neurospheroid added with a DMSO solution is 100%, the amount of the aggregate in the neurospheroid added with each test compound was evaluated.

[2] = test system: α-synuclein aggregate; assay: Test 5: suppressing the accumulation of α-synuclein aggregate in dopamine neurospheroid from PLA2G6 mutant human iPS cells; conditions: compound added day 21, measured day 26, DMSO = 100%
Experimental: Test 5: Evaluation of Suppressing the Accumulation of α-Synuclein Aggregate with Dopamine Neurospheroid Prepared From Human iPS Cells with a Mutation in PLA2G6 Gene
as §1
as §2, with “Dopaminergic progenitor” for “Neural stem”, “dopaminergic neuron differentiation kit” for “PSC Neuronal Induction Medium”, “#A3147701). Dopamine neurospheroid” for “#A1647801). Neurospheroid”, “dopaminergic progenitor” for “neural stem”, “every 3 or” for “on day 2 and day”, “4 days” for “4”
The test compound was diluted with the culture medium so as to be twice the final concentration, and an equal volume of the twice-concentrated solution was added to each well when half of the culture medium was replaced on day 21 after induction of differentiation.
as §3
as §4, with “From the dopamine neurospheroid 26” for “From the neurospheroid 9”, “dopamine neurospheroid 26 days after” for “the neurospheroid 9 days after”
(§5) The amount of the aggregate in the neurospheroid added with each test compound was measured. Assuming that the amount of the aggregate in the neurospheroid added with a DMSO solution is 100%, the amount of the aggregate in the test samples was evaluated.

[3] = test system: α-synuclein aggregate; assay: Test 3: reducing the accumulation of α-synuclein aggregate in neurospheroid from PLA2G6 mutant human iPS cells; conditions: compound added day 10, measured day 15, DMSO = 100%
Experimental: Test 3: Evaluation of Reducing the Accumulation of α-Synuclein Aggregate with Neurospheroid Prepared from Human iPS Cells with a Mutation in PLA2G6 Gene
as §1
(§6) Neural stem cells were induced from PLA2G6 gene mutant iPS cells with PSC Neuronal Induction Medium (Thermo Fisher Scientific Inc., cat #A1647801). Neurospheroid was prepared from the induced neural stem cells by three-dimensional culture system, and preserved with BrainPhys Neuronal Medium (STEMCELL Technologies, cat #ST-05793) comprising NeuroCult SM1 Neuronal Supplement, N2 Supplement-A, 20 ng/mL BDNF, 20 ng/mL GDNF, 1 mM dibutyryl cAMP, and 200 nM ascorbic acid. Half of the culture medium was replaced every 3 or 4 days after the induction of differentiation.
The test compound was diluted with the culture medium so as to be twice the final concentration, and an equal volume of the twice-concentrated solution was added to each well when half of the culture medium was replaced on day 10 after induction of differentiation.
as §3
as §4, with “15” for “9”
as §5

[4] = test system: α-synuclein aggregate; assay: Test 11: reducing the accumulation of α-synuclein aggregate in dopamine neurospheroid from GBA1 mutant human iPS cells; conditions: compound added day 40, measured day 44, DMSO = 100%
Experimental: Test 11: Evaluation of Reducing the Accumulation of α-Synuclein Aggregate with Dopamine Neurospheroid Prepared From Human iPS Cells with a Mutation in GBA1 Gene
as §1
as §6, with “Dopaminergic progenitor” for “Neural stem”, “GBA1” for “PLA2G6”, “dopaminergic neuron differentiation kit” for “PSC Neuronal Induction Medium”, “#A3147701). Dopamine neurospheroid” for “#A1647801). Neurospheroid”, “dopaminergic progenitor” for “neural stem”, “days.” for “days after the induction of differentiation.”
The test compound was diluted with the culture medium so as to be twice the final concentration, and an equal volume of the twice-concentrated solution was added to each well when half of the culture medium was replaced on day 40 after induction of differentiation.
as §3
as §4, with “From the dopamine neurospheroid 44” for “From the neurospheroid 9”, “dopamine neurospheroid 44 days after” for “the neurospheroid 9 days after”
as §5

SMILES | activity at 0.1 µM [1] | activity at 1 µM [1] | Amount of aggregate (%) 100 nM [2] | Amount of aggregate (%) 1000 nM [2] | Amount of aggregate (%) 100 nM [3] | Amount of aggregate (%) 1000 nM [3] | Amount of aggregate (%) 100 nM [4] | Amount of aggregate (%) 1000 nM [4]
CCC1(C(=O)/N=c2\ccccn2C)COC1 [Example 1, 3-Ethyl-N-[(2E)-1-methylpyridin-2(1H)-ylidene]oxetane-3-carboxamide] | 20% | 21% | 9% | 13% | 23% | 18% | 12% | 19%
Cn1cccc/c1=N\C(=O)C1(C)COC1 [Example 2, 3-methyl-N-[(2E)-1-methylpyridin-2(1H)-ylidene]oxetane-3-carboxamide] | 31% | 38% | 24% | 3% | 36% | 35% | 42% | 37%
CCn1cccc/c1=N\C(=O)C1(C)COC1 [Example 3, N-[(2E)-1-ethylpyridin-2(1H)-ylidene]-3-methyloxetane-3-carboxamide] | 35% | 74% | 28% | 78% | 19% | 70% | 44% | 39%
CCC1(C(=O)/N=c2\cc(OC)ccn2C)COC1 [Example 9, 3-ethyl-N-[(2E)-4-methoxy-1-methylpyridin-2(1H)-ylidene]oxetane-3-carboxamide] | 4% | 3% | 5% | 28% | 52% | 37% | – | –
CCC1(C(=O)/N=c2\ccc(F)cn2C)COC1 [Example 31, 3-ethyl-N-[(2E)-5-fluoro-1-methylpyridin-2(1H)-ylidene]oxetane-3-carboxamide] | 25% | 53% | 13% | 12% | 23% | 19% | – | –
COc1ccn(C)/c(=N/C(=O)C2(C)CN(C)C2)c1 [Example 51, N-[(2E)-4-methoxy-1-methylpyridin-2(1H)-ylidene]-1,3-dimethylazetidine-3-carboxamide] | 4% | 9% | 27% | 31% | 12% | 10% | 16% | 30%
COc1c/c(=N\C(=O)C2(C)CN(C)C2)n(C)cc1Cl [Example 60, N-[(2E)-5-chloro-4-methoxy-1-methylpyridin-2(1H)-ylidene]-1,3-dimethylazetidine-3-carboxamide] | 44% | 15% | 21% | 15% | 9% | 9% | – | –
Cn1cccc/c1=N\C(=O)N1CCOC(C)(C)C1 [Example 75, 2,2-Dimethyl-N-[(2E)-1-methylpyridin-2(1H)-ylidene]morpholine-4-carboxamide] | 49% | 63% | – | – | – | – | – | –
Cn1cccc/c1=N\C(=O)N1C[C@H]2CC[C@@H](C1)O2 [Example 76] | 44% | 67% | – | – | – | – | – | –
